Reference: patent publication US4997931A, “Epipodophyllotoxin glycosides” (Bristol-Myers Squibb Company, priority 1990, dated 1991)
Values after ≈ are worked out from the molar mass of the structure shown.

Key:
[1] = system: Murine melanoma B16-F10 cells; assay: In vitro cytotoxicity against B16-F10 cells (neutral red staining, 72 hours); type: cell-based; conditions: Mus musculus, 72 hours incubation, read-out: Cytotoxicity (IC50, μg/ml)
Experimental: Murine melanoma B16-F10 cells were grown and maintained at 37° C. under a humidified atmosphere in a 5% CO2 incubator in Eagle's MEM medium (Nissui) containing kanamycin (60 μg/ml), and supplemented with heat inactivated fetal calf serum (10%) and non-essential amino acids (0.6%). Exponentially growing B16-F10 cells were harvested, counted and suspended in the culture medium at a concentration of 2.0×10^4 cells/ml. Twenty-four hours after planting cell suspension (180 μl) into wells of a 96-well microtiter plate, test materials (20 μl) were added to the wells and the plates were incubated for 72 hours. The cytotoxic activity against B16-F10 cells was colorimetrically determined at 540 nm after staining viable cells with neutral red solution.
(§1) For the in vivo expermient, only the maximum T/C% and the dose giving the maximum value are shown.

murine P388 leukemia = assay: In vivo antitumor activity in the lymphocytic leukemia P388 system; set-up: species or system mouse (Female CDF1 mice); conditions: i.p., once on day 1 (Q1D×1), over 125% significant
Experimental: Antitumor activity of representative compounds of the present invention was tested in the lymphocytic leukemia P388 system. Female CDF1 mice were inoculated intraperitoneally with 1.0×10^6 of leukemia cells per mouse (day 0) and test materials were intraperitoneally administered to mice once on day 1 (Q1D×1). […] The median survival time (MST) of each test group was recorded, and antitumor activity was expressed by means of T/C% values calculated by the following equation:
T/C%=(MST treated.div.MST control)×100
The T/C% values of over 125% are considered significant antitumor activity.
as §1

[2] = 120 mg/kg/Day (dose giving maximum T/C%)
[3] = 60 mg/kg/Day (dose giving maximum T/C%)

Structure (SMILES): COc1cc([C@@H]2c3cc4c(cc3[C@@H](O[C@@H]3O[C@H]([C@H]5COC(C)O5)[C@@H](O)[C@H]3O)[C@H]3COC(=O)[C@H]23)OCO4)cc(OC)c1O (single isomer, unassigned) [Example 2 (epimer I), 4'-demethyl-4-O-(5,6-O-ethylidene-β-D-allofuranosyl)epipodophyllotoxin]
- IC50 [1]: > 100 µg/mL
- Anti-P388 T/C % (maximum; MST treated/MST control ×100) (murine P388 leukemia; [2]): 150%

Structure (SMILES): COc1cc([C@@H]2c3cc4c(cc3[C@@H](O[C@@H]3O[C@H]([C@H]5COC(C)O5)[C@@H](O)[C@H]3O)[C@H]3COC(=O)[C@H]23)OCO4)cc(OC)c1O (single isomer, unassigned) [Example 2 (epimer II), 4'-demethyl-4-O-(5,6-O-ethylidene-β-D-allofuranosyl)epipodophyllotoxin]
- Anti-P388 T/C % (maximum; MST treated/MST control ×100) (murine P388 leukemia; [3]): 140%

Structure (SMILES): COc1cc([C@@H]2c3cc4c(cc3[C@@H](O[C@@H]3O[C@@H]5CO[C@@H](C)O[C@H]5[C@H](O)[C@H]3O)[C@H]3COC(=O)[C@H]23)OCO4)cc(OC)c1O [Etoposide, reference compound]
- IC50 [1]: 0.21 µg/mL (≈ 0.357 µM)
- Anti-P388 T/C % (maximum; MST treated/MST control ×100) (murine P388 leukemia; [2]): 288%

Structure (SMILES): COc1cc([C@@H]2c3cc4c(cc3[C@@H](O[C@@H]3O[C@@H]5COC(C)O[C@H]5[C@@H](O)[C@H]3O)[C@H]3COC(=O)[C@H]23)OCO4)cc(OC)c1O (stereo partly drawn) [Example 1, 4'-Demethyl-4-O-(4,6-O-ethylidene-β-D-allopyranosyl)epidpodophyllotoxin]
- IC50 [1]: 2.1 µg/mL (≈ 3.57 µM)
- Anti-P388 T/C % (maximum; MST treated/MST control ×100) (murine P388 leukemia; [3]): 280%

Structure (SMILES): COc1cc([C@@H]2c3cc4c(cc3[C@@H](O[C@@H]3O[C@@H]5COC(C)O[C@H]5[C@H](O)[C@@H]3O)[C@H]3COC(=O)[C@H]23)OCO4)cc(OC)c1O (stereo partly drawn) [Example 3, 4'-Demethyl-4-O-(4.6-O-ethylidene-β-D-mannopyranosyl)epipodophyllotoxin]
- IC50 [1]: 0.12 µg/mL (≈ 0.204 µM)
- Anti-P388 T/C % (maximum; MST treated/MST control ×100) (murine P388 leukemia; 30 mg/kg/Day (dose giving maximum T/C%)): 186%

Structure (SMILES): COc1cc([C@@H]2c3cc4c(cc3[C@@H](O[C@H]3O[C@@H]5COC(C)O[C@H]5[C@H](O)[C@@H]3O)[C@H]3COC(=O)[C@H]23)OCO4)cc(OC)c1O (stereo partly drawn) [Example 4, 4'-demethyl-4-O-(4,6-O-ethylidene-α-D-mannopyranosyl)epipodophyllotoxin]
- IC50 [1]: 19 µg/mL (≈ 32.3 µM)
- Anti-P388 T/C % (maximum; MST treated/MST control ×100) (murine P388 leukemia; 10 mg/kg/Day (dose giving maximum T/C%)): 124%
